Measured values reported in patent US6884907B2, “Hydroxamic acids and acyl hydroxamines as naaladase inhibitors” (Guilford Pharmaceuticals Inc., priority 2001, dated 2005).

Tests used:
[1] = test system: STZ-diabetic rats; experiment: Reversal of diabetic neuropathy in STZ model, delayed dosing: thermal hyperalgesia; assay type: in vivo; conditions: for neuropathic hyperalgesia (withdrawal latency): daily p.o., treatment started 5 weeks post STZ, within two weeks of treatment, FIG. 20
Description: (§1) Rats (200-225 grams) were injected with STZ (70 mg/kg) into the tail vein. Diabetes (>350 mg/dl) was confirmed in all rats, 4 weeks after STZ administration. Rats were left untreated until 35-49 days after STZ. Compound D (1, 3, or 10 mg/kg), Compound E (10 mg/kg), or vehicle were dosed daily p.o. following confirmation of hyperalgesia and/or nerve conduction velocity deficits. In separate experiments, onset of treatment was delayed until 60 to 90 days after STZ administration. Nerve conduction velocity or withdrawal response to thermal stimulation of hind paws was measured at intervals, usually bi-weekly for thermal response and monthly for nerve conduction velocity.
Animals were acclimated to the apparatus for at least 5 min. An infrared source was placed under below the plantar surface of the rat hind-paw. The intensity of the source was adjusted so that latency for normal rats was about 10 secs. Animals were tested for thermal response latency according to the method of Hargreaves et al (Pain 77-88, 1988). Each animal was tested 8 times (4 each hind limb) and the latency of response recorded automatically to nearest 0.1 sec. An average of the last 4 measurements for each paw was calculated (8 total measurements) and noted for each rat.

[2] = test system: STZ-diabetic rats; experiment: Reversal of diabetic neuropathy in STZ model, delayed dosing: nerve conduction velocity; assay type: in vivo; conditions: for motor nerve conduction velocity: daily p.o., within 8 weeks of dosing, persisted through 12 weeks, FIG. 21
Description: as §1
Sensory and motor nerve conduction velocities were evaluated using the method of De Koning and Gispen (Peptides 8: 415-422, 1987). Electrophysiological evaluation was carried out within one hour of dosing. Animals were anesthetized with isoflurane and stimulating needle electrodes were inserted close to the sciatic nerve at the sciatic notch and the tibial nerve near the ankle. Recording electrodes were placed over the foot muscles. Stimuli were applied and responses recorded. Motor and sensory nerve conduction velocities were calculated by measuring the distance between the sciatic notch and ankle sites, and the latency between the M-wave and the H-reflex.

[3] = target: T1, NAALADase (Homo sapiens, UniProt Q04609); experiment: In vitro inhibition of NAALADase activity; assay type: biochemical; conditions: average IC50 values
T1 construct: from tissue; host or cells: unspecified tissue
T1 sequence (Q04609 whole entry): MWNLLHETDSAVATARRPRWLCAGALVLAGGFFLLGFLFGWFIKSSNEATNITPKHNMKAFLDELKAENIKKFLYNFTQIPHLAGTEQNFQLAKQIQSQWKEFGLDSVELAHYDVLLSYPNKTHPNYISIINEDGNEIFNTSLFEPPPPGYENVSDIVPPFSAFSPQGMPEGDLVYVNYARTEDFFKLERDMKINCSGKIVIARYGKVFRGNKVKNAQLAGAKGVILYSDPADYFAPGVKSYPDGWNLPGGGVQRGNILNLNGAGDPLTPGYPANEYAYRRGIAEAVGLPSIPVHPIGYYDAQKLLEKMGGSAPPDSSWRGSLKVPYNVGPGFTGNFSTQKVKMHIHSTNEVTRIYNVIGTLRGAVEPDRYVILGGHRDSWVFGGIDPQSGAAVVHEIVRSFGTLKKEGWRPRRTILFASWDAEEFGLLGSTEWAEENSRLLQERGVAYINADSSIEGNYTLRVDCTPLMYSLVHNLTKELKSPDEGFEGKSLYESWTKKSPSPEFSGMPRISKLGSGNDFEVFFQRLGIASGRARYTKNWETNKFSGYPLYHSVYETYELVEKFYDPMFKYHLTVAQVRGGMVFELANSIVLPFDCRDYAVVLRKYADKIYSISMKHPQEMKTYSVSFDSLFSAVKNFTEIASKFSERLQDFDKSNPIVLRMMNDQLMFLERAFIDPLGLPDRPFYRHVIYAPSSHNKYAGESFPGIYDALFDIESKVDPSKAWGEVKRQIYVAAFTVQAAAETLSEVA
Description: Various compounds of the invention were tested for in vitro inhibition of NAALADase activity. The average IC50 values of the tested compounds are provided bewlow in Table II.
Protocol for Assaying In Vitro Inhibition of NAALADase Activity
The following were combined in assay tubes: 100 μL of 10 mM CoCl2, 250 μL of 200 mM Tris chloride, 100 μL tissue, 100 μL of 10 mM NAALADase inhibitor in Bakers H2O, and Bakers H2O to make a total volume of 950 μL. Each assay tube was then incubated for 10 minutes in a 37° C. water bath. 50 μL of 3-H-NAAG was then added to each assay tube and incubated for an additional 15 minutes in at 37° C. water bath. The assay was stopped by adding 1.0 ml of 0.1 M sodium phosphate.
Glutamate released by the action of the NAALADase enzyme was separated from the assay solution using an anion exchange resin. The resin was equilibrated to 25° C., 2.0 ml of the resin was added to a Pasteur pipette pre-loaded with a single glass bead, and each column was washed twice with distilled H2O. A column was placed over a scintillation vial and 200 μL of an assay sample was loaded onto the column. After draining, glutamate was eluted using two 1.0 ml washes of 1 M formic acid. After addition of 10 ml of scintillation cocktail, each sample was counted for 2 minutes on a scintillation counter.

[4] = test system: STZ-diabetic animals; experiment: Diabetic neuropathy in STZ model (nerve conduction velocity); assay type: in vivo, rats; conditions: either dose (1 or 10 mg/kg), versus diabetic controls, FIGS. 10A and 10B
Description: Motor and sensory nerve conduction velocity was also measured in STZ-diabetic animals after 4, 8 and 12 weeks of treatment (see De Koning et al., supra, for a description of the experimental method). Briefly, stimulating needle electrodes were inserted close to the sciatic and tibial nerves with recording electrodes being placed subcutaneously over the distal foot muscles, in anesthetized rats.

[5] = test system: STZ-induced diabetic rats; experiment: Neuropathic pain in STZ model (thermal nociception, Hargreaves apparatus); assay type: in vivo, Male Sprague-Dawley rats; conditions: 10 mg/kg i.p. daily, treatment started 45 days post-STZ, FIGS. 7A and 7B
Description: Male Sprague-Dawley rats (200-225 g) were rendered diabetic by intravenous administration of streptozotocin (“STZ”, 70 mg/kg in phosphate buffered saline). Diabetic animals were divided into five groups: one group receiving Compound A (10 mg/kg or 1 mg/kg), Compound D (10 mg/kg or 1 mg/kg) or vehicle. Another group of animals (non-STZ treated) served as non-diabetic controls. Drug/vehicle treatment was started in diabetic animals 45 days post-STZ administration. STZ-induced diabetic rats were tested for sensitivity to a heat source as soon as blood glucose levels rose to 320 mg/dl or above (30 days post STZ). The rats were then acclimated to a Hargreaves apparatus and thermal nociception was monitored using an infrared heat source directed into the dorsal surface of the hindpaw, and the time taken for the animal to remove its paw noted to the nearest 0.1 seconds (see Hargreaves et al., supra, for detailed experimental method). The intensity of the beam source was adjusted such that the mean latency for control animals (non-STZ treated) was approximately 10 seconds. Each animal was tested 8 times and the mean difference score (between mean non-diabetic control latency and mean diabetic latency) are graphically presented in FIGS. 7A and 7B.

[6] = test system: BB/W diabetic rats; experiment: Progression of neuropathic pain and nerve conduction deficits in BB/W model; assay type: in vivo, Male BB/W rats
Description: Male BB/W rats (BRI, Mass) spontaneously develop a cell mediated autoimmune destruction of pancreatic B cells, resulting in onset of insulin-dependent (Type I) diabetes (Guberski 1994). […] This renders them valuable for experimental trials of new compounds for future treatments of this major disorder. In the present study, Compound D and Compound A were examined for their ability to alter the progression of diabetic neuropathy. The rats received daily injection of Compound D or Compound A (10 mg/kg i.p.) or vehicle, starting at the onset of diabetes (hyperglycemia) and up to 6 months thereafter. Another group of non-diabetic rats also receiving vehicle were tested. All animals were continuously monitored for body weight, urine volume, blood sugar and glycated haemoglobin. In the first month of the study, all animals were tested for thermal nociception in a Hargreaves apparatus, weekly. After the first month this was done biweekly and then monthly. The testing consists of directing an infrared heat source onto the dorsal surface of the rat hindpaw and noting the time taken for the animal to remove its paw (see Hargreaves et al., supra, for a description of the experimental method). Each animal was tested 8 times and the mean withdrawal latency noted.
Nerve conduction velocity was also measured every two weeks through the first eight weeks of treatment and every month thereafter through to the six months of treatment (see De Koning et al., Peptides, Vol. 8, No. 3, pp. 415-22 (1987) for a description of the experimental method). […] This was apparent starting at 8 weeks of treatment and persisted to a similar degree through to the six month termination point of the study.

SMILES | IC50 [3] [µM] | further results
O=C(O)c1cccc(CC(CCCS)C(=O)O)c1 (stereo not drawn) [Compound E, 3-carboxy-alpha-(3-mercaptopropyl)benzenepropanoic acid] |  | neuropathic hyperalgesia (withdrawal latency) [1]: reversed towards normal; motor nerve conduction velocity [2]: reversed the motor nerve conduction velocity towards normal
O=C(O)CCC(=O)NO [Compound 84] | 40 | 
CC(C)(C)c1cc(CC(CCCC(=O)NO)C(=O)O)cc(C(=O)O)c1 (stereo not drawn) [Compound 71] | 0.5 | 
O=C(CCC(Cc1ccc(C(=O)O)cc1)C(=O)O)NO (stereo not drawn) [Compound 75, 4-[2-carboxy-5-(hydroxyamino)-5-oxopentyl]benzoic acid] | 0.03 | 
CS(=O)(=O)c1ccc(CC(CCC(=O)NO)C(=O)O)cc1 (stereo not drawn) [Compound 74] | 3 | 
O=C(O)CCC(Cc1cccc(C(=O)NO)c1)C(=O)O (stereo not drawn) [Compound 94] | 40 | 
O=CN(O)CCCC(Cc1cccc(C(=O)O)c1)C(=O)O (stereo not drawn) [Compound 77] | 2.22 | 
O=C(CCC(Cc1cccc(-c2cccc(C(=O)O)c2)c1)C(=O)O)NO (stereo not drawn) [Compound 72] | 0.05 | 
O=C(O)CCC(CCCC(=O)NO)C(=O)O (stereo not drawn) [Compound 85] | 0.9 | 
O=C(O)CCC(CCC(=O)NO)C(=O)O (stereo not drawn) [Compound 83] | 2 | 
O=CN(O)CCC(Oc1cccc(C(=O)O)c1)C(=O)O (stereo not drawn) [Compound 79] | 65.5 | 
O=C(Cc1ccc(CC(Cc2cccc(C(=O)O)c2)C(=O)O)cc1)NO (stereo not drawn) [Compound 90] | 25.8 | 
CCC(SCCCC(Cc1cccc(C(=O)O)c1)C(=O)O)C(=O)NO (stereo not drawn) [Compound 19, 3-[2-Carboxy-5-(1-hydroxycarbamoyl-propylsulfanyl)-pentyl]-benzoic acid] | 4 | 
O=C(CSCCCC(Cc1ccc(C(=O)O)c(Br)c1)C(=O)O)NO (stereo not drawn) [Compound 65, 2-Bromo-4-(2-carboxy-5-hydroxycarbamoylmethyl-sulfanylpentyl)-benzoic acid] | 3 | 
O=CN(O)CCCCC(Cc1cccc(C(=O)O)c1)C(=O)O (stereo not drawn) [Compound 76] | 100 | 
O=C(O)CCC(C(=O)O)C(=O)NO (stereo not drawn) [Compound 86] | 4 | 
CC(C)(C)c1cc(CC(CCC(=O)NO)C(=O)O)cc(C(=O)O)c1 (stereo not drawn) [Compound 2, 3-tert-Butyl-5-(2-carboxy-4-hydroxycarbamoyl-butyl)-benzoic acid] | 0.06 | 
O=C(CSCCCC(Cc1cccc(C(=O)O)c1)C(=O)O)NO (stereo not drawn) [Compound 17, 3-(2-Carboxy-5-hydroxycarbamoylmethyl-sulfanylpentyl)-benzoic acid] | 0.4 | 
O=CN(O)CCC(Cc1cccc(C(=O)O)c1)C(=O)O (stereo not drawn) [Compound 78] | 10.3 | 
O=C(O)CCC(CCS)C(=O)O (stereo not drawn) [Compound D, 2-(2-sulfanylethyl)pentanedioic acid] |  | motor and sensory nerve conduction velocities [4]: increased both motor and sensory nerve conduction velocities; hyperalgesic response (withdrawal latency difference score) [5]: completely reversed; neuropathic hyperalgesia (withdrawal latency) [1]: reversed towards normal; neuropathic pain abnormalities ([1]; lower doses 1 and 3 mg/kg, treatment initiated 7 weeks after STZ, FIG. 23): Significant reduction in pain abnormalities; motor nerve conduction velocity [2]: reversed the motor nerve conduction velocity towards normal; motor nerve conduction ([2]; lower doses 1 and 3 mg/kg, treatment from 7 weeks post STZ, 8 weeks after dosing): remained unimproved; sensory nerve conduction ([2]; lower doses 1 and 3 mg/kg, treatment from 7 weeks post STZ, within 4 weeks of treatment): significantly improved towards normal; sensory and motor nerve conduction velocity deficits ([2]; untreated until 60 days after STZ, external CRO, FIGS. 26 and 27): Partial reversal of both deficits; nerve conduction velocity ([6]; 10 mg/kg daily, versus diabetic vehicle controls, from 8 weeks to six months, FIG. 12): significantly less severe nerve conduction deficits; withdrawal latency ([6]; 10 mg/kg i.p. daily, versus diabetic vehicle-treated rats, from 4 weeks through six months of treatment, FIG. 11): longer withdrawal latencies
O=C(O)CNC(=O)c1cc(C(=O)O)cc(C(=O)NO)c1 [Compound 81] | 9 | 
O=C(CCC(Cc1ccccc1C(=O)O)C(=O)O)NO (stereo not drawn) [Compound 73] | 2 | 
COC(=O)c1cccc(CC(C(=O)O)C(=O)NO)c1 (stereo not drawn) [Compound 10, 3-(2-Carboxy-2-hydroxycarbamoyl-ethyl)-benzoic acid methyl ester] | 100 | 
